Assay results taken from publication PMC11921695 (BMC Cancer, 2025).
Values joined by “and” are separate entries in the source; they are usually repeats but may differ in a detail not shown here. Equal entries are not always repeated. Where two headings read alike, the source gives them in different places.

Tests used:
CYPs 3A, 1A and 2C9 = test system: CYPs 3A, 1A and 2C9; design: method as in Investigator Brochure; details: protocol background; ref Investigator Brochure; cited from earlier work
[1] = type: in vivo; details: trough plasma, individual patients
Protocol: Peripheral blood w ill be sent to Lab21 for anti-retroviral drug levels on Cycle 1 D ay 1 Pre-
treatment, Cycle 1 Day 15 and Cycle 4 D ay 22/Cycle 5 Day 1. […]
• 5mls of venous blood should be collected into a K2- ED TA BD vacutainer
• Samples should be inverted several times to ensure adequate mix ing. […]
• Samples should be stored at - 200C. […]
Ant i-retroviral drug lev els
• Samples to be collected Cycle 1 Day 1 Pre- treatment and Cycle 1 Day 15 and Cycle 4 Day […]
• 2x 1000 µl of plasma should be aliquoted to 1.5 ml plastic screw top tubes.
• Samples should be stored at - 200C (or below) for 24 hours befor e sending. […]
Therapeutic drug monitoring of the cART therapies was undertaken by Lab 21 Ltd (Cambridge, UK). Blood plasma was prepared from 5 ml of venous blood collected in K2-EDTA BD vacutainer tubes from kits provided by Covance. Samples were centrifuged at 2000 g for 20 minutes at room temperature, frozen at sites, packed in dry ice and sent to Lab 21 Ltd (Cambridge, UK) where they were stored at -20°C prior to analysis.

[2] = type: in vivo; details: trough plasma, Cycle 5 Day 15, individual patient
[3] = test system: non-small cell lung cancer; design: method as in SCART protocol 7.3.1; details: selumetinib 75mg bd + docetaxol 75mg/m2 iv day 1 every 21 days (combination arm) or chemotherapy alone arm; ref SCART protocol 7.3.1; cited from earlier work
Kaposi's sarcoma = test system: Kaposi's sarcoma; design: method as in Tulpule, et al. 2002; details: 100mg/m2 q 2 weeks, second-line; ref Tulpule, et al. 2002; cited from earlier work
[4] = Cycle 1 Day 1 (pre-selumetinib), selumetinib starting dose 75 mg bd
[5] = Cycle 1 Day 15, selumetinib starting dose 75 mg bd
[6] = Cycle 1 Day 1 (pre-selumetinib), selumetinib starting dose 50 mg bd
[7] = Cycle 1 Day 15, selumetinib starting dose 50 mg bd
[8] = Cycle 5 Day 1, selumetinib starting dose 50 mg bd
[9] = Cycle 5 Day 1, selumetinib starting dose 75 mg bd

Row | Structure (SMILES) | Antiretroviral drug Concentration [1, 4] | Antiretroviral drug Concentration [1, 5] | Antiretroviral drug Concentration [1, 6] | Antiretroviral drug Concentration [1, 7] | Antiretroviral drug Concentration [1, 8] | also measured
1 | Cn1cnc2c(F)c(Nc3ccc(Br)cc3Cl)c(C(=O)NOCCO)cc21 [AZD6244] | – | – | – | – | – | induction of CYPs 3A, 1A and 2C9 (CYPs 3A, 1A and 2C9): weak
2 | Nc1nc(NC2CC2)c2ncn([C@H]3C=C[C@@H](CO)C3)c2n1 [Abacavir] | 1060 ng/mL | 246 ng/mL | – | – | – | –
3 | COC(=O)N[C@H](C(=O)N[C@@H](Cc1ccccc1)[C@@H](O)CN(Cc1ccc(-c2ccccn2)cc1)NC(=O)[C@@H](NC(=O)OC)C(C)(C)C)C(C)(C)C [Atazanavir] | 758 ng/mL | 5797 ng/mL | – | – | – | –
4 | O=C1Nc2ccc(Cl)cc2[C@@](C#CC2CC2)(C(F)(F)F)O1 [Efavirenz] | 3378 ng/mL | 3139 ng/mL | 4545 ng/mL | 4180 ng/mL | 6257 ng/mL | –
5 | Nc1ccn([C@@H]2CS[C@H](CO)O2)c(=O)n1 [Lamivudine] | 817 ng/mL | 512 ng/mL | – | – | – | –
6 | CC(C)c1nc(CN(C)C(=O)N[C@H](C(=O)N[C@@H](Cc2ccccc2)C[C@H](O)[C@H](Cc2ccccc2)NC(=O)OCc2cncs2)C(C)C)cs1 [Ritonavir] | 364 ng/mL and 342 ng/mL | 1585 ng/mL and 564 ng/mL | 516 ng/mL and 94 ng/mL | 462 ng/mL and 575 ng/mL and 246 ng/mL | 328 ng/mL and 566 ng/mL | Antiretroviral drug Concentration [1, 9]: 431 ng/mL
7 | C[C@H](Cn1cnc2c(N)ncnc21)OCP(=O)(O)O [Tenofovir] | 84 ng/mL and 30 ng/mL and 60 ng/mL and 130 ng/mL and 90 ng/mL | 123 ng/mL and 46 ng/mL and 239 ng/mL and 40 ng/mL | 133 ng/mL and 15 ng/mL and 90 ng/mL | 51 ng/mL and 234 ng/mL and 43 ng/mL | 55 ng/mL | Antiretroviral drug Concentration [1, 9]: 135 ng/mL and 104 ng/mL; Antiretroviral drug Concentration ([2]; selumetinib starting dose 50 mg bd): 230 ng/mL; Antiretroviral drug Concentration ([2]; selumetinib starting dose 75 mg bd): 143 ng/mL
8 | CC(=O)O[C@@]12CO[C@@H]1C[C@H](O)[C@@]1(C)C(=O)[C@H](O)C3=C(C)[C@@H](OC(=O)[C@H](O)[C@@H](NC(=O)OC(C)(C)C)c4ccccc4)C[C@@](O)([C@@H](OC(=O)c4ccccc4)[C@H]21)C3(C)C [docetaxol] | – | – | – | – | – | febrile neutropenia, patients [3]: 0/42
9 | CC(=O)O[C@H]1C(=O)[C@@]2(C)[C@H]([C@H](OC(=O)c3ccccc3)[C@]3(O)C[C@H](OC(=O)[C@H](O)[C@@H](NC(=O)c4ccccc4)c4ccccc4)C(C)=C1C3(C)C)[C@]1(OC(C)=O)CO[C@@H]1C[C@@H]2O [paclitaxel] | – | – | – | – | – | median PFS (Kaposi's sarcoma): 39 weeks; response rate (Kaposi's sarcoma): 56%
